Usually Ki stands for the dissociation constant of the complex between target and ligand, obtained from inhibition or displacement.

The values that follow come from patent US10118947B2, “Modulation of structured polypeptide specificity” (BICYCLE THERAPEUTICS LIMITED, priority 2013, dated 2018).

The experiment addresses T1, human plasma Kallikrein (Homo sapiens, UniProt P03952).
T1 construct: purchased Stratech, UK
Put plainly: Functional enzyme inhibition assay with fluorogenic substrate Z-PheArg-AMC, human plasma Kallikrein. The conditions noted are these: for Ki: read-out: Ki; for F (Kivar/KiWT): ratio of Ki to wild type. Format: biochemical. As for the experimental part:
Functional enzyme assays were conducted in 10 mM Tris HCl, 150 mM NaCl, 10 mM MgCl2, 1 mM CaCl2) and 1 mg/mL BSA (all Sigma UK) pH7.4 at 25° C. in solid black 96 well plates. Briefly 26.5 pM human plasma Kallikrein (purchased from Stratech, UK) or 500 pM rat plasma Kallikrein (expressed and purified in house) were incubated in the absence or presence of increasing concentrations of test peptide for 15 minutes before addition of the fluorogenic substrate Z-PheArg-AMC (Enzo Lifesciences UK) to a final assay concentration of 100 μM in 4% DMSO. Release of AMC was measured using a Pherastar FS (BMG Labtech), excitation 360 nm, emission 460 nm. The rate of the linear phase of the reaction, typically 5 to 45 minutes, was calculated in MARS data analysis software (BMG labtech). The rate was then used to calculate the IC50 and Ki in Prism (GraphPad). A four parameter inhibition non-linear regression equation was used to calculate the IC50.
Peptides were dissolved as the TFA-salts in their powder form, and stock solutions were usually prepared in water. All solutions were centrifuged and filtered ([…] syringe filters) prior absorption measurement at 280 nm. […] For peptides containing non-natural amino acids with suspected chromophoric properties (i.e. NorHar, 4PhenylPro, 3Pal, 4Pal, Tic, 4GuanPhe, 4,4-BPAI, 3,3-DPA, 1NAI, 2NAI, 4BenzylPro, Ind) concentrations were determined by weighing the powder and dissolving the peptide in a defined quantity of water.

Where [1] appears, read: Table 24b, residue 7 modifications.
The mark [2] stands for this setting: Table 24c, residue 8 modifications.

Where two headings read alike, the source gives them in different places. Numbered stars: 1 amine (or outer) side, 2 acyl side, 3 side chain; on linkers, the order of the positions; unused ones are H or OH. Bridge positions count the residues as written; N and C are the ends. Square brackets hold non-standard residues; d marks the D form. Peptide text beside a SMILES is read from it. Ala(4-thiazolyl) = N[C@@H](Cc1cscn1)C(=O)O; TBMB = c1c(C[*:1])cc(C[*:3])cc1C[*:2]; 2Pal = N[C@@H](Cc1ccccn1)C(=O)O; β3hQ = NC(=O)CC[C@H](N)CC(=O)O; Dap = NC[C@H](N)C(=O)O

T1 sequence (P03952 20-638): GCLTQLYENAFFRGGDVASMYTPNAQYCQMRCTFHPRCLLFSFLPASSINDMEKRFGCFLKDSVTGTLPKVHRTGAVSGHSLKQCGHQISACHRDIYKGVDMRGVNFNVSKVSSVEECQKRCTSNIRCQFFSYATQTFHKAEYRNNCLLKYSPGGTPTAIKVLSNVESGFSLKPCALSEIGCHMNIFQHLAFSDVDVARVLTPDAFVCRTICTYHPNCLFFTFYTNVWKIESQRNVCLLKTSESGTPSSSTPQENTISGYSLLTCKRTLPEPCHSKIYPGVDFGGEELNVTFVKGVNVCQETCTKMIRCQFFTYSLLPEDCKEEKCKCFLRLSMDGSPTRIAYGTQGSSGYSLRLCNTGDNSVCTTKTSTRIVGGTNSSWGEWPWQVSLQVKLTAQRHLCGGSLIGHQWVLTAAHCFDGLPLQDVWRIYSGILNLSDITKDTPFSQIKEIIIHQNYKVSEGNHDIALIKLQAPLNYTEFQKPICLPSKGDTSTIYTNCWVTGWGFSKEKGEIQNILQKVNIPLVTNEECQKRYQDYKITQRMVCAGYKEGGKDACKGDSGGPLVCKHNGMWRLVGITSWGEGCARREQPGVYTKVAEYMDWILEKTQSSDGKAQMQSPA

Turning to `CC(=O)N[C@H]1CSCc2cc3cc(c2)CSC[C@H](NC(=O)[C@H](CCCNC(=N)N)NC(=O)[C@H](Cc2ccc(O)cc2)NC(=O)[C@@H]2CCCN2C(=O)[C@H](Cc2ccccc2)NC(=O)[C@H](CO)NC1=O)C(=O)N[C@@H](CC(C)C)C(=O)N[C@@H](Cc1ccccn1)C(=O)N[C@@H](CCC(N)=O)C(=O)N[C@@H](CC(=O)O)C(=O)N[C@@H](CC(C)C)C(=O)N[C@H](C(N)=O)CSC3` [Ac-(06-34-18) Phe2 Tyr4 2Pal7] (Ac-CSFPYRCL[2Pal]QDLC-NH2; linker 1-7-13 via TBMB), the Ki under setting [1] is 53 nM. Also, the “F (Kivar/KiWT)” value (Table 24b) is 126.

Turning to `CC(=O)N[C@H]1CSCc2cc3cc(c2)CSC[C@H](NC(=O)[C@H](CCCNC(=N)N)NC(=O)[C@H](Cc2ccc(O)cc2)NC(=O)[C@@H]2CCCN2C(=O)[C@H](Cc2ccccc2)NC(=O)[C@H](CO)NC1=O)C(=O)N[C@@H](CC(C)C)C(=O)N[C@@H](CN)C(=O)N[C@@H](CCC(N)=O)C(=O)N[C@@H](CC(=O)O)C(=O)N[C@@H](CC(C)C)C(=O)N[C@H](C(N)=O)CSC3` [Ac-(06-34-18) Phe2 Tyr4 Dap7] (Ac-CSFPYRCL[Dap]QDLC-NH2; linker 1-7-13 via TBMB), the Ki under setting [1] was 246 nM. For the same compound, the “F (Kivar/KiWT)” value (Table 24b) was determined as 586.

As for `CC(=O)N[C@H]1CSCc2cc3cc(c2)CSC[C@H](NC(=O)[C@H](CCCNC(=N)N)NC(=O)[C@H](Cc2ccc(O)cc2)NC(=O)[C@@H]2CCCN2C(=O)[C@H](Cc2ccccc2)NC(=O)[C@H](CO)NC1=O)C(=O)N[C@@H](CC(C)C)C(=O)N[C@@H](Cc1cscn1)C(=O)N[C@@H](CCC(N)=O)C(=O)N[C@@H](CC(=O)O)C(=O)N[C@@H](CC(C)C)C(=O)N[C@H](C(N)=O)CSC3` [Ac-(06-34-18) Phe2 Tyr4 4ThiAz7] (Ac-CSFPYRCL[Ala(4-thiazolyl)]QDLC-NH2; linker 1-7-13 via TBMB), the Ki under setting [1] was found to be 14 nM. Further, the “F (Kivar/KiWT)” value (Table 24b) stood at 33.

As for `CC(=O)N[C@H]1CSCc2cc3cc(c2)CSC[C@H](NC(=O)[C@H](CCCNC(=N)N)NC(=O)[C@H](Cc2ccc(O)cc2)NC(=O)[C@@H]2CCCN2C(=O)[C@H](Cc2ccccc2)NC(=O)[C@H](CO)NC1=O)C(=O)N[C@@H](CC(C)C)C(=O)N[C@@H](Cc1c[nH]cn1)C(=O)N[C@@H]([C@@H](C)O)C(=O)N[C@@H](CC(=O)O)C(=O)N[C@@H](CC(C)C)C(=O)N[C@H](C(N)=O)CSC3` [Ac-(06-34-18) Phe2 Tyr4 Thr8] (Ac-CSFPYRCLHTDLC-NH2; linker 1-7-13 via TBMB), the Ki under setting [2] turned out to be 4.23 nM. In addition, the “F (Kivar/KiWT)” value (Table 24c) came out at 10.

On to `CC(=O)N[C@H]1CSCc2cc3cc(c2)CSC[C@H](NC(=O)[C@H](CCCNC(=N)N)NC(=O)[C@H](Cc2ccc(O)cc2)NC(=O)[C@@H]2CCCN2C(=O)[C@H](Cc2ccccc2)NC(=O)[C@H](CO)NC1=O)C(=O)N[C@@H](CC(C)C)C(=O)N[C@@H](Cc1c[nH]cn1)C(=O)N[C@@H](CCC(N)=O)C(=O)N[C@@H](CC(=O)O)C(=O)N[C@H](C)C(=O)N[C@H](C(N)=O)CSC3` [Ac-(06-34-18) Phe2 Tyr4 D-Ala10] (Ac-CSFPYRCLHQD[dA]C-NH2; linker 1-7-13 via TBMB), for which the Ki (Table 3c, D-Alanine scan in Loop2) worked out at 572 nM. Further, the “F (Kivar/KiWT)” value (Table 3c) is 1362.

As for `CC(=O)N[C@H]1CSCc2cc3cc(c2)CSC[C@H](NC(=O)[C@H](CCCNC(=N)N)NC(=O)[C@H](Cc2ccc(O)cc2)NC(=O)[C@@H]2CCCN2C(=O)[C@H](Cc2ccccc2)NC(=O)[C@H](CO)NC1=O)C(=O)N[C@@H](CC(C)C)C(=O)N[C@@H](Cc1c[nH]cn1)C(=O)N[C@@H](CCC(N)=O)CC(=O)N[C@@H](CC(=O)O)C(=O)N[C@@H](CC(C)C)C(=O)N[C@H](C(N)=O)CSC3` [Ac-(06-34-18) Phe2 Tyr4 bHGln8] (Ac-CSFPYRCLH[β3hQ]DLC-NH2; linker 1-7-13 via TBMB), the Ki under setting [2] is 16.8 nM. For the same compound, the “F (Kivar/KiWT)” value (Table 24c) is listed as 40.
